Test results taken from patent publication US6800482B2, “Cultured cells of Australian laurel, Pittosporaceae and a method for culturing tissues by using said cultured cells” (Hiroshima University, priority 2001, dated 2004).

Tests used:
Type in all cases: cell-based
[1] = test system: leaf of the Australian laurel, Pittosporaceae; assay: Redifferentiation from the leaf in WP culture medium (Example 3, Table 2); conditions: NAA 0 μM, 22 to 28° C., bright place
Experimental: (§1) A WP culture medium or a MS culture medium was used as a fundamental culture medium. As a carbon source was used 1% sucrose, and 0.3% Gellan-Gum (Trade name) was used as a gelling agent. An Australian laurel, Pittosporaceae seed was treated with 70% ethanol for 1 hour with 2.5% sodium hypochlorite for 1 hour, and sterilized by washing it with sterilized water. After water was fed to the seed 2 night or more at 4° C. in dark, it was planted in the culture medium. After germination, a seedling of four weeks age was used for a tissue culturing. Cut pieces, 1 mm thick, were prepared from a leave, a stem and a roof of the living matter, and planted and cultured in the same culture medium as mentioned above but containing naphthaleneacetic acid and thidiazuron (TDZ) as a hormon. […] About 2 months after the planting, a shoot was cut out from the polyblast, and indoleacetic acid was applied to a cut portion of the shoot. The shoot treated with indoleacetic acid was inserted into a solid culture medium or a mixed soil of perlite and vermiculite containing a culture medium. The shoot was cultured and rooted.
Redifferentiation from the leaf and the stem of the Australian laurel, Pittosporaceae was examined. The WP culture medium was used as a culture medium. A culturing temperature was set in a range of 22 to 28° C. The Australian laurel, Pittosporaceae was cultured in a bright place. […]

[2] = test system: cut pieces from the stem of Australian laurel, Pittosporaceae; assay: Tissue culture of cut pieces in culture medium containing thidiazuron and naphthaleneacetic acid (Example 1, Table 1); conditions: for Numbers of cut pieces leading to stem or leaf/10 cut pieces: NAA 0 μM, WP culture medium, 6 weeks
Experimental: as §1
Cut pieces from the stem was cultured in the WP culture medium added with thidiazuron and naphthaleneacetic acid for 6 weeks, and observation results thereof are shown in Table 1.

[3] = test system: Embryo (text: stem) of the Australian laurel, Pittosporaceae; assay: Redifferentiation, column Embryo, in WP culture medium (Example 3, Table 2); conditions: for Redifferentiation Embryo: NAA 0 μM, WP culture medium, 22 to 28° C., bright place
Experimental: as §1
Redifferentiation from the leaf and the stem of the Australian laurel, Pittosporaceae was examined. The WP culture medium was used as a culture medium. A culturing temperature was set in a range of 22 to 28° C. The Australian laurel, Pittosporaceae was cultured in a bright place. The planting condition and the other culturing conditions were the same as those in Example 1.

O=C(Nc1ccccc1)Nc1cnns1 [TDZ, thidiazuron]
Redifferentiation Leaf ([1]; TDZ 10^4 nM): 0%
Redifferentiation Leaf ([1]; TDZ 10^5 nM): 0%
Numbers of cut pieces leading to stem or leaf/10 cut pieces ([2]; TDZ 0.1 μm): 0 /10 cut pieces
Numbers of cut pieces leading to stem or leaf/10 cut pieces ([2]; TDZ 10 μm): 0 /10 cut pieces
Redifferentiation ([2]; concentration of thidiazuron not less than 10 μM, culture medium containing naphthaleneacetic acid): redifferentiation was confirmed
Redifferentiation Embryo ([3]; TDZ 10^4 nM): 5.0%
Redifferentiation Embryo ([3]; TDZ 10^5 nM): 10.0%
Redifferentiation percentages ([3]; cultures containing 10^4 to 10^5 nM thidiazuron): considerably high redifferentiation percentages
